Test results reported in patent US11214803B2, “Modulators of YAP1 expression” (Ionis Pharmaceuticals, Inc., priority 2019, dated 2022).
Strand notation (5' to 3'): a small letter for the sugar, then the base; units joined by * are phosphorothioate-linked, units joined directly phosphodiester-linked; [ ] holds rarer units or linkages, { } end groups; capitals alone tell only the bases. k = constrained ethyl (cEt); [5mC] = 5-methylcytosine; d = 2'-deoxy (DNA)

These substances were tested on Yap1 mRNA (assay: Antisense inhibition of human Yap1 in A-431 cells by cEt gapmers, single dose (Example 2, RTS4814)). Conditions: A-431 cells, 5,000 cells per well, free uptake, 2,000 nM modified oligonucleotide, approx. 48 hours, RTS4814, normalized to RIBOGREEN; Table 4; asterisk (*) = targets amplicon region of primer probe set.
Assay type: cell-based
In short: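 Free uptake, 2,000 nM, ~48 h, A-431 at 5,000 cells/well. Readout: RT-qPCR (RTS4814), RIBOGREEN-normalized, % UTC. 16-mer 3-10-3 cEt gapmers, full PS backbone, all C as 5-methylcytosine.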

Compared with “716361 (kG*kG*kT*dT*dG*dA*dG*dG*d[5mC]*dG*dG*d[5mC]*dG*kG*k[5mC]*kT; antisense) [Compound 716361]”, “716541 (antisense kT*kA*kA*dA*dG*dG*d[5mC]*dA*d[5mC]*dT*dA*d[5mC]*dA*kT*kT*kT) [Compound 716541]” is higher in “YAP1 (% UTC)” value: 75 % UTC for the first, 92 % UTC for the second.

Compared with “716373 (k[5mC]*kA*kA*d[5mC]*dT*dG*d[5mC]*dA*dG*dA*dG*dA*dA*kG*k[5mC]*kT; antisense) [Compound 716373]”, “716409 (k[5mC]*kA*kG*dG*dA*dA*dG*dT*d[5mC]*dA*dT*d[5mC]*dT*kG*kG*kG; antisense) [Compound 716409]” is higher in “YAP1 (% UTC)” value: 69 % UTC for the first, 99 % UTC for the second.

Going from “716457 (kA*kA*kA*dG*dG*dA*dT*dA*d[5mC]*dA*dT*dT*d[5mC]*k[5mC]*kA*k[5mC]; antisense) [Compound 716457]” to “716505 (antisense kG*kA*kT*dT*dT*dA*dA*dT*d[5mC]*dT*dT*dT*d[5mC]*kT*kG*k[5mC]) [Compound 716505]”, the “YAP1 (% UTC)” value falls from 61 % UTC to 35 % UTC.

In the case of “716490 (kA*k[5mC]*kA*dA*d[5mC]*d[5mC]*dA*dA*d[5mC]*dT*dA*dT*dT*kA*k[5mC]*kT; antisense) [Compound 716490]”, the “YAP1 (% UTC)” value is reported as 63 % UTC.

Same assay, conditions: Table 5; A-431 cells, 5,000 cells per well, free uptake, 2,000 nM modified oligonucleotide, approx. 48 hours; RTS4814; normalized to RIBOGREEN; Yap1 mRNA relative to untreated control cells

Going from “716428 (kA*k[5mC]*kA*dG*dG*d[5mC]*dT*d[5mC]*dA*d[5mC]*dT*dT*d[5mC]*k[5mC]*k[5mC]*k[5mC]; antisense) [Compound 716428]” to “716386 (kA*kT*kT*dT*d[5mC]*dT*d[5mC]*d[5mC]*dA*dT*d[5mC]*d[5mC]*dT*kG*kA*kG; antisense) [Compound 716386]”, the “YAP1 (% UTC)” value rises from 10 % UTC to 60 % UTC.

Same assay, conditions: Table 6; A-431 cells, 5,000 cells per well, free uptake, 2,000 nM modified oligonucleotide, approx. 48 hours; RTS4814; normalized to RIBOGREEN; Yap1 mRNA relative to untreated control cells

Going from “716372 (kA*kT*kG*dA*dG*d[5mC]*dT*d[5mC]*dG*dA*dA*d[5mC]*dA*kT*kG*k[5mC]; antisense) [Compound 716372]” to “716393 (kT*kT*kG*d[5mC]*dT*dG*d[5mC]*dT*dG*dG*dT*dT*dG*kG*kA*kG; antisense) [Compound 716393]”, the “YAP1 (% UTC)” value falls from 61 % UTC to 46 % UTC.

Compared with “716555 (kT*kA*k[5mC]*dT*dT*dT*dT*dT*d[5mC]*dA*dA*dG*dA*kT*kA*k[5mC]; antisense) [Compound 716555]”, “716564 (k[5mC]*kT*kT*dT*dT*dG*dG*dG*d[5mC]*dA*dA*dA*dG*kT*kT*k[5mC]; antisense) [Compound 716564]” is higher in “YAP1 (% UTC)” value: 99 % UTC for the first, 103 % UTC for the second.

With “716498 (kG*kA*kA*dG*dG*dG*d[5mC]*d[5mC]*dA*dA*dA*dA*dT*kA*k[5mC]*kT; antisense) [Compound 716498]” the “YAP1 (% UTC)” value was 92 % UTC.

Same assay, conditions: Table 18; A-431 cells, 5,000 cells per well, free uptake, 2,000 nM modified oligonucleotide, approx. 48 hours; RTS4814; normalized to RIBOGREEN; Yap1 mRNA as percent of untreated control

Going from “1076452 (kG*kG*kA*d[5mC]*dT*dA*dT*dA*dG*d[5mC]*d[5mC]*d[5mC]*dT*kT*kA*kA; antisense) [Compound 1076452]” to “1074980 (antisense kT*kA*kT*dT*dG*d[5mC]*d[5mC]*dA*dG*dT*dT*d[5mC]*dT*kT*kG*kT) [Compound 1074980]”, the “YAP1 (% UTC)” value rises from 16 % UTC to 26 % UTC.

Compared with “1074244 (antisense k[5mC]*kT*k[5mC]*dT*dG*dA*d[5mC]*d[5mC]*dA*dG*dA*dA*dG*kA*kT*kG) [Compound 1074244]”, “1076356 (k[5mC]*kA*kT*dA*dA*dT*dT*dG*dG*dA*d[5mC]*dT*dG*kT*k[5mC]*kT; antisense) [Compound 1076356]” is higher in “YAP1 (% UTC)” value: 95 % UTC for the first, 99 % UTC for the second.

Going from “1075876 (kG*kT*kA*dT*dT*dT*dA*dT*dG*dA*dT*dG*dA*kT*kT*k[5mC]; antisense) [Compound 1075876]” to “1075620 (kG*kA*kT*dG*dA*dA*dG*dA*dA*dT*d[5mC]*dT*dA*kT*kA*kG; antisense) [Compound 1075620]”, the “YAP1 (% UTC)” value rises from 6 % UTC to 88 % UTC.

Same assay, conditions: Table 19; A-431 cells, 5,000 cells per well, free uptake, 2,000 nM modified oligonucleotide, approx. 48 hours; RTS4814; normalized to RIBOGREEN; Yap1 mRNA as percent of untreated control

“1074949 (antisense kG*kT*kG*dA*dT*dT*dT*dT*dT*dT*d[5mC]*dT*dG*kA*kG*kT) [Compound 1074949]” was tested, and the “YAP1 (% UTC)” value was 31 % UTC.

Same assay, conditions: Table 20; Yap1 mRNA, percent of untreated control; 3-10-3 cEt gapmers targeting SEQ ID NO.: 1 and 2

First: 1074758 (k[5mC]*kA*kG*dT*dT*dA*dA*dG*d[5mC]*dA*d[5mC]*dT*dT*kT*kT*kA; antisense) [Compound 1074758]
Second: 1074598 (antisense k[5mC]*kT*kT*dA*dT*dA*dG*dT*dA*dT*dT*d[5mC]*dT*kA*kT*k[5mC]) [Compound 1074598]
The “YAP1 (% UTC)” value of the first is lower: 4 % UTC for the first, 46 % UTC for the second.

“1076390 (kG*kA*kT*d[5mC]*dG*dA*dA*dA*dT*dA*dT*dT*d[5mC]*kG*kA*kG; antisense) [Compound 1076390]” was tested, and the “YAP1 (% UTC)” value was 54 % UTC.

Same assay, conditions: Table 21; Yap1 mRNA, percent of untreated control; 3-10-3 cEt gapmers targeting SEQ ID NO.: 1 and 2

Compared with “1076135 (k[5mC]*kA*kT*dA*dA*dT*dT*dG*dA*d[5mC]*dA*dG*dG*kT*kA*kT; antisense) [Compound 1076135]”, “1074279 (antisense kG*kT*k[5mC]*dA*dA*dG*d[5mC]*d[5mC]*dT*dT*dG*dG*dG*kT*k[5mC]*kT) [Compound 1074279]” is lower in “YAP1 (% UTC)” value: 14 % UTC for the first, 13 % UTC for the second.

Same assay, conditions: Table 22; Yap1 mRNA as percent of untreated control; 3-10-3 cEt gapmers; single dose

First: 1074248 (antisense kG*kA*kT*d[5mC]*dG*dA*dT*dG*dT*dG*dA*dT*dT*kT*kA*kA) [Compound 1074248]
Second: 1074888 (antisense kG*kT*kT*dT*dA*dG*d[5mC]*d[5mC]*dT*dG*dA*dA*dG*k[5mC]*kA*kA) [Compound 1074888]
The “YAP1 (% UTC)” value of the first is lower: 29 % UTC for the first, 58 % UTC for the second.

Same assay, conditions: Table 23; Yap1 mRNA as percent of untreated control; 3-10-3 cEt gapmers; single dose

Going from “1074825 (kA*k[5mC]*k[5mC]*dT*dG*dA*dG*d[5mC]*dA*d[5mC]*dT*d[5mC]*dA*kT*kT*kT; antisense) [Compound 1074825]” to “1076233 (k[5mC]*k[5mC]*kA*dA*dT*dA*dA*dA*dG*d[5mC]*dA*dA*dG*kT*kA*kG; antisense) [Compound 1076233]”, the “YAP1 (% UTC)” value falls from 36 % UTC to 13 % UTC.

Same assay, conditions: Table 24; Yap1 mRNA as percent of untreated control; 3-10-3 cEt gapmers targeting SEQ ID NO.: 1, and 2

Compared with “1075626 (k[5mC]*kA*kT*dT*dA*dG*d[5mC]*d[5mC]*dA*dA*dA*dG*d[5mC]*kT*k[5mC]*kA; antisense) [Compound 1075626]”, “1075786 (k[5mC]*kT*kA*dT*dA*dT*dT*dG*dA*dT*dT*d[5mC]*d[5mC]*kA*kG*kA; antisense) [Compound 1075786]” is lower in “YAP1 (% UTC)” value: 34 % UTC for the first, 19 % UTC for the second.

Same assay, conditions: Table 25; Yap1 mRNA as percent of untreated control; 3-10-3 cEt gapmers targeting SEQ ID NO.: 1, and 2

First: 1074283 (antisense kA*kA*kA*dA*d[5mC]*dG*dA*dG*dG*dG*dT*d[5mC]*dA*kA*kG*k[5mC]) [Compound 1074283]
Second: 1075147 (antisense kT*kA*kT*dA*dA*dA*d[5mC]*d[5mC]*dT*dT*dA*d[5mC]*dA*kG*kT*kA) [Compound 1075147]
The “YAP1 (% UTC)” value of the first is lower: 12 % UTC for the first, 57 % UTC for the second.

Compared with “1075499 (kG*k[5mC]*kT*dA*dA*dA*dA*dA*dA*dT*dG*dA*dG*kT*kA*kG; antisense) [Compound 1075499]”, “1075339 (kA*k[5mC]*k[5mC]*d[5mC]*dA*dA*dA*dA*dA*d[5mC]*dT*dA*dG*k[5mC]*kT*kT; antisense) [Compound 1075339]” is lower in “YAP1 (% UTC)” value: 99 % UTC for the first, 70 % UTC for the second.

First: 1074315 (antisense kG*kA*kT*dT*dG*dA*dT*dA*dT*dT*d[5mC]*d[5mC]*dG*k[5mC]*kA*kT) [Compound 1074315]
Second: 1074187 (antisense k[5mC]*kT*kG*d[5mC]*dG*dA*dA*dG*dG*d[5mC]*dG*dG*d[5mC]*kT*kG*k[5mC]) [Compound 1074187]
The “YAP1 (% UTC)” value of the first is lower: 3 % UTC for the first, 47 % UTC for the second.

Same assay, conditions: Table 33; Yap1 mRNA, percent of untreated control; 3-10-3 cEt gapmers targeting SEQ ID NO.: 1, and 2

First: 1076051 (k[5mC]*kT*kT*dA*dA*d[5mC]*dT*dA*dT*dT*d[5mC]*dA*dG*k[5mC]*k[5mC]*k[5mC]; antisense) [compound 1076051]
Second: 1074387 (k[5mC]*k[5mC]*kA*dG*dG*dA*dA*dT*dG*dG*d[5mC]*dT*dT*k[5mC]*kA*kA; antisense) [compound 1074387]
The “YAP1 (% UTC)” value of the first is lower: 21 % UTC for the first, 32 % UTC for the second.

Same assay, conditions: Yap1 mRNA as percent of untreated control; A-431 cells; 3-10-3 cEt gapmers targeting SEQ ID NO.: 1, and 2; Table 30

First: 1074256 (antisense k[5mC]*kA*k[5mC]*dT*dG*dG*dT*dG*dG*dA*d[5mC]*dT*dG*kG*kT*kG) [compound 1074256]
Second: 1075664 (antisense kG*k[5mC]*kT*dA*dA*dA*dT*dA*dG*dG*dT*dG*dG*kT*kT*kA) [compound 1075664]
The “YAP1 (% UTC)” value of the first is lower: 64 % UTC for the first, 87 % UTC for the second.

“1075024 (antisense kA*k[5mC]*kT*dG*dA*dA*d[5mC]*dA*dA*dG*dT*dA*dT*k[5mC]*kT*kT) [compound 1075024]” was tested, and the “YAP1 (% UTC)” value was 32 % UTC.

Same assay, conditions: Yap1 mRNA as percent of untreated control; A-431 cells; 3-10-3 cEt gapmers targeting SEQ ID NO.: 1, and 2; Table 31

Compared with “1075857 (antisense k[5mC]*kT*kT*dA*dA*dA*d[5mC]*dA*dA*dT*d[5mC]*d[5mC]*d[5mC]*kT*kA*kA) [compound 1075857]”, “1075409 (antisense k[5mC]*kT*kT*dT*dA*dA*dA*dT*dA*dG*d[5mC]*dA*dG*kA*kG*kG) [compound 1075409]” is lower in “YAP1 (% UTC)” value: 69 % UTC for the first, 22 % UTC for the second.

For “1076081 (kG*kA*kT*dA*dA*dT*dT*d[5mC]*dA*d[5mC]*d[5mC]*d[5mC]*dT*kT*kG*kT; antisense) [compound 1076081]”, the “YAP1 (% UTC)” value was 15 % UTC.
